According to patent publication US4534978A, “Perfluorocycloamines” (The Green Cross Corporation, priority 1984, dated 1985):

What was measured:
Acute Toxicity Test = assay type: in vivo, Wister-strain male rats; conditions: emulsion i.v., 100 ml/kg-body weight, observed one week, male rats
Protocol: The acute toxicity test on the preparations of the present invention was carried out using the preparations of the present invention shown in Table 4 which had been physiologically isotonized. The test animals used were Wister-strain male rats (weighing 100-120 g).
The results are such that with either emulsion containing perfluoro-N-cyclohexylprrolidine or perfluoro-N-(3'-methylcyclohexyl)pyrrolidine, thre was no death case at 100 ml/kg-body weight and thus their toxicity are very small.

[1] = Distribution of Perfluoro-compound in Organs; assay type: in vivo, Wister-strain male rats; conditions: 4 g/kg into the tail vein, male rats
Source text: The content of perfluoro-N-cyclohexylpyrrolidine uptake in each organ 1, 2 and 4 weeks and 3 months after the administration are shown in Table 5.

SMILES | death cases (Acute Toxicity Test) | toxicity (Acute Toxicity Test) | adverse influence on the liver or spleen organ [1] | uptake by the reticulo-endothelial organs and disappearance [1] | Residual Rate of perfluoro-compound ([1]; Liver, 1 week after administration) | Residual Rate of perfluoro-compound ([1]; Liver, 2 weeks after administration) | Residual Rate of perfluoro-compound ([1]; Liver, 3 months after administration) | Residual Rate of perfluoro-compound ([1]; Liver, 4 weeks after administration) | Residual Rate of perfluoro-compound ([1]; Spleen, 1 week after administration) | Residual Rate of perfluoro-compound ([1]; Spleen, 2 weeks after administration) | Residual Rate of perfluoro-compound ([1]; Spleen, 3 months after administration) | Residual Rate of perfluoro-compound ([1]; Spleen, 4 weeks after administration) | half-life ([1]; rat, in vivo, iv, 4000 mg/kg, calculated)
FC1(F)N(C2(F)C(F)(F)C(F)(F)C(F)(F)C(F)(F)C2(F)F)C(F)(F)C(F)(F)C1(F)F [Example 1, perfluoro-N-cyclohexylpyrrolidine] | no death case | very small | no evidence of adverse influence on the liver or spleen organ | taken up in greater amounts by the reticulo-endothelial organs shortly after the administration, but soon disappeared rapidly | 21.23% | 13.63% | 0.24% | 4.98% | 12.33% | 10.49% | 0.51% | 8.52% | 16 days
FC(F)(F)C1(F)C(F)(F)C(F)(F)C(F)(F)C(F)(N2C(F)(F)C(F)(F)C(F)(F)C2(F)F)C1(F)F (stereo not drawn) [Example 38, perfluoro-N-(3'-methylcyclohexyl)pyrrolidine] | no death case | very small |  |  |  |  |  |  |  |  |  |  | 
